The results in this text go back to ChEMBL document CHEMBL1949511, “Asymmetrical 2,6-bis(benzylidene)cyclohexanones: Synthesis, cytotoxic activity and QSAR study” (Eur J Med Chem, 2012).

Converted amounts (≈) assume the structure as drawn.

In test [1] the test system is SK-N-MC. The test is described as follows: Cytotoxicity against human SK-N-MC cells by MTT assay. In kind it is functional, cell-based. (In general: Tetrazolium dyes change colour on reduction, which living cells bring about.)
Test [2] concerns MCF7. The test is described as follows: Cytotoxicity against human MCF7 cells by MTT assay. The format is functional, cell-based.
Test [3] deals with MDA-MB-231. The test is described as follows: Cytotoxicity against human MDA-MB-231 cells by MTT assay. In kind it is functional, cell-based.
In test [4] the test system is MDA-MB-231. The test is described as follows: Ratio of etoposide IC50 to compound IC50 for human MDA-MB-231 cells by MTT assay. The format is functional.
The subject of test [5] is MCF7. The experiment in a line: Ratio of etoposide IC50 to compound IC50 for human MCF7 cells by MTT assay. The format is functional.
For test [6], the system named is SK-N-MC. The experiment in a line: Ratio of etoposide IC50 to compound IC50 for human SK-N-MC cells by MTT assay. The format is functional.

Broadly, the IC50 is the concentration at which inhibition is half-maximal. The low end stands for higher potency, the high end for lower potency.

Turning to `O=C1/C(=C/c2ccc(Cl)cc2)CCC/C1=C\c1ccc([N+](=O)[O-])cc1`, the IC50 with SK-N-MC [1] came to 14 µg/mL (≈ 39.7 µM); in the test with MCF7 [2], 1.02 µg/mL (≈ 2.88 µM); in the test with MDA-MB-231 [3] it was 12.4 µg/mL (≈ 35.1 µM).

As to `COc1cc(/C=C2\CCC/C(=C\c3ccc([N+](=O)[O-])cc3)C2=O)ccc1O`, the IC50 in the test with SK-N-MC [1] was 48 µg/mL (≈ 131 µM); in the test on MCF7 [2] it was 7.05 µg/mL (≈ 19.3 µM); in the test with MDA-MB-231 [3], 13.1 µg/mL (≈ 35.8 µM).

As for `COc1cccc(/C=C2\CCC/C(=C\c3ccccc3[N+](=O)[O-])C2=O)c1`, the IC50 in the test with SK-N-MC [1] was found to be 4.49 µg/mL (≈ 12.9 µM); in the test on MCF7 [2], 5.62 µg/mL (≈ 16.1 µM); with MDA-MB-231 [3], 14.3 µg/mL (≈ 41 µM).

Consider `COc1cc(/C=C2\CCC/C(=C\c3ccccc3[N+](=O)[O-])C2=O)cc(Br)c1OC`, for which the 50% inhibitory concentration (IC50) was 6.24 µg/mL (≈ 13.6 µM) in the test on SK-N-MC [1], 3.35 µg/mL (≈ 7.31 µM) with MCF7 [2] and 8.99 µg/mL (≈ 19.6 µM) in the test on MDA-MB-231 [3].

With `CCCOc1c(Br)cc(/C=C2\CCC/C(=C\c3ccccc3[N+](=O)[O-])C2=O)cc1OC`, in the test with MDA-MB-231 [4], the “Ratio IC50” value was 10. Besides, the IC50 in the test on SK-N-MC [1] is 3.5 µg/mL (≈ 7.2 µM); in the test with MCF7 [2] it was 4.14 µg/mL (≈ 8.51 µM); in the test on MDA-MB-231 [3], 1.99 µg/mL (≈ 4.09 µM).

`COc1cccc(/C=C2\CCC/C(=C\c3cccc([N+](=O)[O-])c3)C2=O)c1`: the results for the IC50 in the test with SK-N-MC [1], in the test with MCF7 [2] and in the test with MDA-MB-231 [3] were 4.94 µg/mL (≈ 14.1 µM), 4.17 µg/mL (≈ 11.9 µM) and 13.2 µg/mL (≈ 37.7 µM), respectively.

In the case of `COc1cccc(/C=C2\CCC/C(=C\c3cccc([N+](=O)[O-])c3)C2=O)c1OC`, the IC50 in the test with SK-N-MC [1] is 10.1 µg/mL (≈ 26.6 µM); with MCF7 [2] it was 5.14 µg/mL (≈ 13.5 µM); in the test on MDA-MB-231 [3] it was 5.59 µg/mL (≈ 14.7 µM).

With `COc1cc(/C=C2\CCC/C(=C\c3cccc([N+](=O)[O-])c3)C2=O)cc(Br)c1OC`, the IC50 in the test on SK-N-MC [1] came out at 16.7 µg/mL (≈ 36.4 µM); in the test with MCF7 [2] it was 4.72 µg/mL (≈ 10.3 µM); with MDA-MB-231 [3], 13.9 µg/mL (≈ 30.4 µM).

With `CCOc1c(Br)cc(/C=C2\CCC/C(=C\c3cccc([N+](=O)[O-])c3)C2=O)cc1OC`, the IC50 was 10.8 µg/mL (≈ 22.8 µM) with SK-N-MC [1], 24.9 µg/mL (≈ 52.7 µM) with MCF7 [2] and 19.3 µg/mL (≈ 40.9 µM) with MDA-MB-231 [3].

Turning to `CCCOc1c(Br)cc(/C=C2\CCC/C(=C\c3cccc([N+](=O)[O-])c3)C2=O)cc1OC`, the “Ratio IC50” value with MCF7 [5], in the test with MDA-MB-231 [4] and with SK-N-MC [6] was 7 throughout. The figures for the IC50 in the test on SK-N-MC [1], with MCF7 [2] and in the test on MDA-MB-231 [3] were 1.51 µg/mL (≈ 3.1 µM), 0.85 µg/mL (≈ 1.75 µM) and 2.99 µg/mL (≈ 6.15 µM), respectively.

Take `CCCCOc1c(Br)cc(/C=C2\CCC/C(=C\c3cccc([N+](=O)[O-])c3)C2=O)cc1OC`: the figures for the IC50 in the test with SK-N-MC [1], in the test with MCF7 [2] and in the test on MDA-MB-231 [3] were 25.3 µg/mL (≈ 50.7 µM), 5.97 µg/mL (≈ 11.9 µM) and 5.53 µg/mL (≈ 11.1 µM), respectively.

For `O=C1/C(=C/c2ccc([N+](=O)[O-])cc2)CCC/C1=C\c1cccc([N+](=O)[O-])c1`, the half-inhibitory concentration (IC50) in the test with SK-N-MC [1] came to 17.9 µg/mL (≈ 49.1 µM); in the test with MCF7 [2], 8.4 µg/mL (≈ 23.1 µM); with MDA-MB-231 [3] it was 8.85 µg/mL (≈ 24.3 µM).

`O=C1/C(=C/c2cccc(Cl)c2)CCC/C1=C\c1cccc([N+](=O)[O-])c1`: the half-maximal inhibitory concentration (IC50) turned out to be 4.15 µg/mL (≈ 11.7 µM) in the test with SK-N-MC [1], 5.15 µg/mL (≈ 14.6 µM) in the test with MCF7 [2] and 5.01 µg/mL (≈ 14.2 µM) in the test on MDA-MB-231 [3].

As for `COc1cccc(/C=C2\CCC/C(=C\c3ccc([N+](=O)[O-])cc3)C2=O)c1`, the half-maximal inhibitory concentration (IC50) with SK-N-MC [1] was determined as 11.5 µg/mL (≈ 33 µM); in the test on MCF7 [2], 5.82 µg/mL (≈ 16.7 µM); in the test on MDA-MB-231 [3], 51.4 µg/mL (≈ 147 µM).

As to `COc1cccc(/C=C2\CCC/C(=C\c3ccc([N+](=O)[O-])cc3)C2=O)c1OC`, the IC50 in the test on SK-N-MC [1] came to 22.1 µg/mL (≈ 58.4 µM); in the test with MCF7 [2], 13.3 µg/mL (≈ 35.1 µM); with MDA-MB-231 [3] it was 6.73 µg/mL (≈ 17.7 µM).

Consider `COc1cc(/C=C2\CCC/C(=C\c3ccc([N+](=O)[O-])cc3)C2=O)cc(Br)c1O`, for which the IC50 with SK-N-MC [1] is 16.8 µg/mL (≈ 37.8 µM); with MCF7 [2], 4.93 µg/mL (≈ 11.1 µM); in the test on MDA-MB-231 [3], greater than 100 µg/mL.

`COc1cc(/C=C2\CCC/C(=C\c3ccc([N+](=O)[O-])cc3)C2=O)cc(Br)c1OC`: the IC50 in the test on SK-N-MC [1] is 9.86 µg/mL (≈ 21.5 µM); in the test on MCF7 [2], 11 µg/mL (≈ 24.1 µM); with MDA-MB-231 [3], 8.71 µg/mL (≈ 19 µM).

`CCOc1c(Br)cc(/C=C2\CCC/C(=C\c3ccc([N+](=O)[O-])cc3)C2=O)cc1OC`: the IC50 in the test with SK-N-MC [1] was 3.91 µg/mL (≈ 8.28 µM); in the test with MCF7 [2] it was 3.08 µg/mL (≈ 6.52 µM); in the test on MDA-MB-231 [3], 34.7 µg/mL (≈ 73.5 µM).

Take `CCCOc1c(Br)cc(/C=C2\CCC/C(=C\c3ccc([N+](=O)[O-])cc3)C2=O)cc1OC`: the IC50 was 23.3 µg/mL (≈ 47.8 µM) with SK-N-MC [1], 7.98 µg/mL (≈ 16.4 µM) with MCF7 [2] and 4.01 µg/mL (≈ 8.24 µM) in the test on MDA-MB-231 [3].

In the case of `CCCCOc1c(Br)cc(/C=C2\CCC/C(=C\c3ccc([N+](=O)[O-])cc3)C2=O)cc1OC`, the half-inhibitory concentration (IC50) came to 41.3 µg/mL (≈ 82.6 µM) with SK-N-MC [1], 27 µg/mL (≈ 54 µM) with MCF7 [2] and 8.38 µg/mL (≈ 16.7 µM) in the test on MDA-MB-231 [3].

As for `COc1ccc(/C=C2\CCC/C(=C\c3cccc([N+](=O)[O-])c3)C2=O)cc1`, the IC50 with SK-N-MC [1] stood at 10.4 µg/mL (≈ 29.7 µM); with MCF7 [2], 5.71 µg/mL (≈ 16.3 µM); in the test with MDA-MB-231 [3], 44.7 µg/mL (≈ 128 µM).

Consider `COc1ccc(/C=C2\CCC/C(=C\c3ccccc3[N+](=O)[O-])C2=O)cc1`, for which the figures for the IC50 in the test with SK-N-MC [1], with MCF7 [2] and with MDA-MB-231 [3] were 75 µg/mL (≈ 215 µM), 11.2 µg/mL (≈ 32.1 µM) and 45 µg/mL (≈ 129 µM), respectively.

In the case of `COc1cc([C@@H]2c3cc4c(cc3[C@@H](O[C@@H]3O[C@@H]5CO[C@@H](C)O[C@H]5[C@H](O)[C@H]3O)[C@H]3COC(=O)[C@H]23)OCO4)cc(OC)c1O` [ETOPOSIDE], the values for the half-inhibitory concentration (IC50) in the test with SK-N-MC [1], with MCF7 [2] and with MDA-MB-231 [3] were 14 µg/mL (≈ 23.9 µM), 18.4 µg/mL (≈ 31.3 µM) and 20.5 µg/mL (≈ 34.9 µM), respectively.
